# Data taken from patent US7553821B2, “Methods for selectively modulating survivin apoptosis pathways” (Yale University, priority 2000, dated 2009).
# Entries after “also recorded” stand apart in the source; their conditions may differ.
# What was measured:
# p34^cdc2-cyclin B1 = target: T1, p34^cdc2-cyclin B1 (Homo sapiens, UniProt P06493); assay: In vitro kinase assay with p34cdc2-cyclin B1; type: biochemical; settings: recombinant protein as substrate, 32P-ATP, 30 min at 30° C., autoradiography
# T1 construct: host or cells: baculovirus expression system
# Procedure: (§1) FIG. 1B. In vitro kinase assay. Wild type (WT) survivin, survivin(T34A) (T34A), or control (H1) were incubated with baculovirus-expressed p34^cdc2-cyclin B1 or cdk2-cyclin E in kinase buffer plus 10 μCi γ-^32P-ATP for 30 min at 30° C. Samples were separated by SDS gel electrophoresis and radioactive bands were visualized by autoradiography. Equal protein loading was confirmed by Coomassie blue staining of the gel.
# (§2) Transfection experiments. For transient transfection, HeLa cells in C-6 tissue culture plates (Costar, Cambridge, Mass.) at ˜60-70% confluency, were incubated in 1 ml of serum-free OptiMEM medium (Life Technologies, Gaithersburg, Md.) for 20 min, and transfected with 2.5 μg of the various plasmid cDNAs plus 9 μl Lipofectamine (Life Technologies). After a 5 h incubation at 37° C., the mixture was aspirated and substituted with complete growth medium for 48-72 h. To generate stable YUSAC-2 transfectants, a survivin(T34A) cDNA was inserted into the HindIII-SpeI sites of the pTet-splice vector (Dr. D. Schatz, Yale University School of Medicine), downstream of the regulatory sequences of the Tet-resistance operon (TetO). […] Gated GFP-expressing cells were analyzed for DNA content by flow cytometry on a FACSort (Becton Dickinson, San Jose, Calif.) using a Cell Quest software. […]
# Cdk2-cyclin E = target: T2, Cdk2-cyclin E (Homo sapiens, UniProt P24941); assay: In vitro kinase assay with Cdk2-cyclin E; type: biochemical; settings: recombinant protein as substrate, control experiment, autoradiography
# T2 construct: host or cells: baculovirus expression system
# Procedure: as §1, §2
# HeLa cells = assay: Mitotic spindle immunofluorescence (tubulin) in transfected HeLa cells; type: cell-based; settings: tubulin labeling
# Procedure: HeLa cells transfected with wild type survivin (WT) or survivin(T34A) (T34A), were fixed in microtubule-stabilizing buffer (Li et al., 1998), and labeled with mAb 20C6 to […] -tubulin followed by FITC-conjugated goat anti-mouse IgG. Images were analyzed by confocal microscopy as described in FIG. 2C.
# as §2, with “(TetO). YUSAC-2 cells were transfected with 0.8 μg pTet-T34A, 0.8 μg of the transactivation/selection plasmid ptTA-Neo and 5 μl Lipofectamine in 1 ml of OptiMem.” for “(TetO).”
# F5.C4 tumors = assay: Effect on established F5.C4 tumors in mice; type: in vivo
# Procedure: Error bars indicate standard deviation. Also shown are 5 representative growth curves from 15 animals in which tet was withheld (day 0) upon tumor formation (no symbols).
# Next, the effect of survivin Thr^34→Ala on established tumors was assessed. Fifteen mice were injected with F5.C4 cells and tet was provided to permit tumor formation. Once tumors became apparent (20-50 mm^3), tet was withheld from the drinking water and tumors were monitored for 5 weeks. […] Rather, a spectrum of growth curves with some tumors failing to grow at all after tet was withdrawn was observed (FIG. 10A). […] In the two small F5.C4 tumors that formed in the absence of tet (Table I), a similar pattern of apoptotic cell death was seen (not shown).
# T1 sequence (P06493 whole entry): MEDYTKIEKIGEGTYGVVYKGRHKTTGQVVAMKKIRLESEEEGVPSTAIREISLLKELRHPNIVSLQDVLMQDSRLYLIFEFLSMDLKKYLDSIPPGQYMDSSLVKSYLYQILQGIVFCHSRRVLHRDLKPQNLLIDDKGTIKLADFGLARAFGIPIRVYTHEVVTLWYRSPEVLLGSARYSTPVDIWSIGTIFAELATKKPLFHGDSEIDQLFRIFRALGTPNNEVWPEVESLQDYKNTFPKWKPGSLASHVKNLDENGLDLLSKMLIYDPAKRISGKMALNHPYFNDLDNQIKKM
# T1 sequence (P14635 whole entry partner): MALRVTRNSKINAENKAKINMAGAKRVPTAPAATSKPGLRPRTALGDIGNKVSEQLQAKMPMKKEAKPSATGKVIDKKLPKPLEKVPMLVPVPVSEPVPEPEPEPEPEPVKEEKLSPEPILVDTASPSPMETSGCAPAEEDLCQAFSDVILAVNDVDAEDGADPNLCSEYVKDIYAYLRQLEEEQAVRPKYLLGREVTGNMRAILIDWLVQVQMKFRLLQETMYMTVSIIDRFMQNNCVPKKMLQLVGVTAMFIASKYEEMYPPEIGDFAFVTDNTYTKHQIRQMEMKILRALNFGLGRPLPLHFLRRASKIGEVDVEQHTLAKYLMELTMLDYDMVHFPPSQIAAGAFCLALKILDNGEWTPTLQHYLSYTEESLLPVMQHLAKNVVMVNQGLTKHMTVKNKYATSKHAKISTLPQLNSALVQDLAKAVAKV
substance,measurement,setting,value
"survivin(T34A): dominant-negative, non-phosphorylatable survivin mutant with Thr34→Ala substitution, expressed from transfected cDNA (also HA- or GFP-tagged)",phosphorylation by p34^cdc2-cyclin B1,p34^cdc2-cyclin B1,abolished phosphorylation
same,phosphorylation by Cdk2-cyclin E,Cdk2-cyclin E,did not phosphorylate
same,mitotic spindle morphology,HeLa cells,profound dysregulation of mitotic transitions
same,growth of established tumors after tet withdrawal,"F5.C4 tumors; F5.C4 tumors 20-50 mm^3 at withdrawal, monitored for 5 weeks",None of the tumors grew at a rate comparable to F5.C4 tumors in animals maintained on tet
same,histologic analysis of tumors after transgene induction,"F5.C4 tumors; F5.C4 tumors, tet withdrawn, listed as survivin Thr^34→Ala",massive areas of necrosis and prominent cellular apoptosis by TUNEL; also recorded: lack of normal mitotic figures and the presence of aberrant mitoses
